Source: ChEMBL document CHEMBL1201862, “PubChem BioAssay data set” (2004)
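A five-concentration, 48-hour dose response in 96-well plates underlies each endpoint, interpolated linearly between surrounding concentrations. The concentration for 50% growth inhibition is given as GI50.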 The source made the active and inactive calls. Rule as the data show it: active = GI50 up to about 1.1 µM and inactive = higher.

Columns and labels:
Assay in all cases: NCI-60 cell line screen, 48 h
[1] = test system: OVCAR-8
[2] = test system: NCI-H522
[3] = test system: SF-539
[4] = test system: SK-OV-3
[5] = test system: HCC 2998
[6] = test system: A498
[7] = test system: HL-60
[8] = test system: UACC-62
[9] = test system: CCRF-CEM
[10] = test system: RPMI-8226
[11] = test system: SNB-75
[12] = test system: SF-268
[13] = test system: HOP-92
[14] = test system: OVCAR-4
[15] = test system: CAKI-1
[16] = test system: LOX IMVI

Structure (SMILES)	GI50 [1]	GI50 [2]	GI50 [3]	GI50 [4]	GI50 [5]	GI50 [6]	GI50 [7]	GI50 [8]	GI50 [9]	GI50 [10]	GI50 [11]	GI50 [12]	GI50 [13]	GI50 [14]	GI50 [15]	GI50 [16]
CC1(C)Oc2ccccc2[N+]([O-])=C1c1ccccc1	> 100 µM (inactive)	> 100 µM (inactive)	> 100 µM (inactive)	> 100 µM (inactive)	> 100 µM (inactive)	> 100 µM (inactive)	> 100 µM (inactive)	> 100 µM (inactive)	> 100 µM (inactive)	> 100 µM (inactive)	> 100 µM (inactive)	> 100 µM (inactive)	> 100 µM (inactive)	> 100 µM (inactive)	> 100 µM (inactive)	
O=C1OC(=O)c2c1c(-c1ccccc1)nc1ccccc21	> 100 µM (inactive)	> 100 µM (inactive)	> 100 µM (inactive)	> 100 µM (inactive)	> 100 µM (inactive)	> 100 µM (inactive)	> 100 µM (inactive)	> 100 µM (inactive)	> 100 µM (inactive)	> 100 µM (inactive)	> 100 µM (inactive)	> 100 µM (inactive)			> 100 µM (inactive)	> 100 µM (inactive)
Cc1cc(S(=O)(=O)O)c(NC(=O)C(=O)Cc2cc(=O)oc3cc(O)ccc23)cc1Cl	> 100 µM (inactive)	> 100 µM (inactive)	> 100 µM (inactive)	> 100 µM (inactive)	> 100 µM (inactive)	> 100 µM (inactive)	> 100 µM (inactive)	> 100 µM (inactive)	> 100 µM (inactive)		> 100 µM (inactive)	> 100 µM (inactive)	> 100 µM (inactive)	> 100 µM (inactive)	> 100 µM (inactive)	> 100 µM (inactive)
COC(=O)C(=Cc1cc(OC)c(OC)c(OC)c1-c1cc2c(cc1C1(C)OCCS1)OCO2)C(=O)OC (configuration not stated)	31.6 µM (inactive)	15.8 µM (inactive)	40.6 µM (inactive)	38.3 µM (inactive)	32.2 µM (inactive)		24.9 µM (inactive)	15.5 µM (inactive)	33 µM (inactive)	28 µM (inactive)		29.5 µM (inactive)	3.5 µM (inactive)		19.3 µM (inactive)	22.6 µM (inactive)
N#C/N=C(/N)NCN/C(N)=N\C#N	> 100 µM (inactive)	> 100 µM (inactive)	> 100 µM (inactive)	> 100 µM (inactive)	> 100 µM (inactive)	> 100 µM (inactive)	> 100 µM (inactive)	> 100 µM (inactive)	> 100 µM (inactive)	> 100 µM (inactive)	> 100 µM (inactive)	> 100 µM (inactive)	> 100 µM (inactive)	59.4 µM (inactive)	> 100 µM (inactive)	
c1ccc2c(c1)cc1n2CC2CN=NC12 (configuration not stated)	> 100 µM (inactive)	> 100 µM (inactive)	> 100 µM (inactive)	> 100 µM (inactive)	> 100 µM (inactive)	> 100 µM (inactive)	> 100 µM (inactive)	> 100 µM (inactive)		> 100 µM (inactive)	47.8 µM (inactive)	> 100 µM (inactive)		> 100 µM (inactive)	> 100 µM (inactive)	> 100 µM (inactive)
O=C(c1ccccc1)n1cc(/C=C/[N+](=O)[O-])c2ccccc21	35.6 µM (inactive)	15.1 µM (inactive)	21.4 µM (inactive)	> 100 µM (inactive)		> 100 µM (inactive)	3.24 µM (inactive)	20.1 µM (inactive)	13.4 µM (inactive)	15.7 µM (inactive)	32.7 µM (inactive)	23.1 µM (inactive)	23.8 µM (inactive)	27 µM (inactive)	84.9 µM (inactive)	15.2 µM (inactive)
COC(=O)c1sc(=NC(=S)N2CCCCC2)sc1C(=O)OC	> 100 µM (inactive)	0.569 µM (active)	> 100 µM (inactive)	> 100 µM (inactive)	> 100 µM (inactive)	> 100 µM (inactive)	> 100 µM (inactive)	> 100 µM (inactive)	32.7 µM (inactive)	> 100 µM (inactive)	> 100 µM (inactive)	> 100 µM (inactive)		> 100 µM (inactive)	> 100 µM (inactive)	
CC(C)c1ccccc1NC(=O)C(=O)Cc1nc2ccccc2s1	> 100 µM (inactive)	> 100 µM (inactive)	> 100 µM (inactive)	> 100 µM (inactive)	> 100 µM (inactive)	> 100 µM (inactive)	> 100 µM (inactive)	> 100 µM (inactive)	> 100 µM (inactive)		> 100 µM (inactive)	> 100 µM (inactive)	> 100 µM (inactive)	> 100 µM (inactive)	> 100 µM (inactive)	
Nc1ncn([C@@H]2C=C(CO)C(O)C2O)c(=O)n1 (some centres not stated)	79.3 µM (inactive)	> 100 µM (inactive)	> 100 µM (inactive)	> 100 µM (inactive)	56.2 µM (inactive)	> 100 µM (inactive)	39.5 µM (inactive)	83.9 µM (inactive)	45.5 µM (inactive)	37.7 µM (inactive)		> 100 µM (inactive)	> 100 µM (inactive)	> 100 µM (inactive)	98.4 µM (inactive)	44.4 µM (inactive)
COc1cccc(C2CC23C(=O)NC(=O)NC3=O)c1 (configuration not stated)	> 100 µM (inactive)	> 100 µM (inactive)	> 100 µM (inactive)	> 100 µM (inactive)	> 100 µM (inactive)	> 100 µM (inactive)	> 100 µM (inactive)	> 100 µM (inactive)	> 100 µM (inactive)	> 100 µM (inactive)		> 100 µM (inactive)	> 100 µM (inactive)	> 100 µM (inactive)	> 100 µM (inactive)	> 100 µM (inactive)
CCC1CN2CCc3cc(OC)c(OC)cc3C2CC1CC1c2cc(OC)c(OC)cc2CCN1C(=O)CNC(=O)OC(C)(C)C (configuration not stated)	5.64 µM (inactive)			28.6 µM (inactive)	3.1 µM (inactive)	32.3 µM (inactive)	4.14 µM (inactive)	19.7 µM (inactive)	3.34 µM (inactive)	19 µM (inactive)	20.9 µM (inactive)	24.4 µM (inactive)		2.88 µM (inactive)	21.7 µM (inactive)	4.48 µM (inactive)
COc1ccc(O)cc1 [MEQUINOL]	55.7 µM (inactive)		47.4 µM (inactive)	> 100 µM (inactive)	> 100 µM (inactive)	> 100 µM (inactive)	44.1 µM (inactive)	24.8 µM (inactive)	60.3 µM (inactive)	> 100 µM (inactive)	> 100 µM (inactive)	55 µM (inactive)	44.1 µM (inactive)	> 100 µM (inactive)	94.4 µM (inactive)	49 µM (inactive)
Nc1nc(SCCC/C=C/I)nc2c1ncn2C1OC(CO)C(O)C1O (configuration not stated)	> 202 µM (inactive)	> 202 µM (inactive)	> 202 µM (inactive)	> 202 µM (inactive)		> 202 µM (inactive)	> 202 µM (inactive)	> 202 µM (inactive)	98.4 µM (inactive)	> 202 µM (inactive)	78.9 µM (inactive)	> 202 µM (inactive)	> 202 µM (inactive)	> 202 µM (inactive)	> 202 µM (inactive)	> 202 µM (inactive)
Cc1nc(Nc2ccc(Cl)cc2)sc1C(=O)Nc1cccc2c(=O)[nH][nH]c(=O)c12	> 100 µM (inactive)	23.5 µM (inactive)	36.7 µM (inactive)	52.6 µM (inactive)	39.5 µM (inactive)	22.8 µM (inactive)	8.75 µM (inactive)	0.439 µM (active)	16.9 µM (inactive)		28 µM (inactive)	31.8 µM (inactive)	13.3 µM (inactive)	49.4 µM (inactive)	33.2 µM (inactive)	13.6 µM (inactive)
CCOP(=O)(OCC)C1=NC=CC=CC1n1c(-c2ccccc2)nn(CC)c1=O (configuration not stated)	> 100 µM (inactive)	> 100 µM (inactive)	> 100 µM (inactive)	> 100 µM (inactive)	> 100 µM (inactive)		> 100 µM (inactive)	> 100 µM (inactive)	> 100 µM (inactive)	> 100 µM (inactive)		> 100 µM (inactive)	7.06 µM (inactive)		> 100 µM (inactive)	> 100 µM (inactive)
Cc1cccc2c1Sc1ccccc1C2NC(=O)CCN(C)C (configuration not stated)	> 100 µM (inactive)		> 100 µM (inactive)	> 100 µM (inactive)	> 100 µM (inactive)		> 100 µM (inactive)	> 100 µM (inactive)	> 100 µM (inactive)	> 100 µM (inactive)	96.4 µM (inactive)	> 100 µM (inactive)		> 100 µM (inactive)		> 100 µM (inactive)
COC(=O)/C(C#N)=C1\CCC(OC)N1 (configuration not stated)	> 100 µM (inactive)	> 100 µM (inactive)	> 100 µM (inactive)	> 100 µM (inactive)	> 100 µM (inactive)		> 100 µM (inactive)	> 100 µM (inactive)	> 100 µM (inactive)	> 100 µM (inactive)	> 100 µM (inactive)	> 100 µM (inactive)		> 100 µM (inactive)	> 100 µM (inactive)	> 100 µM (inactive)
CC1C[C@]2(C[C@@H](C)C(=O)O2)O[C@@H]2CC3(C)[C@@H]4CCC5C(C)(C)OC(=O)C[C@H]6OO[C@]4(CC[C@]3(C)C12)CC56O (some centres not stated)	> 100 µM (inactive)	> 100 µM (inactive)	> 100 µM (inactive)	> 100 µM (inactive)	> 100 µM (inactive)		> 100 µM (inactive)	> 100 µM (inactive)		> 100 µM (inactive)	> 100 µM (inactive)			> 100 µM (inactive)		> 100 µM (inactive)
